From ChEMBL document CHEMBL1201862, “PubChem BioAssay data set” (2004)
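Exposure lasted 48 hours, with cells grown in 96-well plates and compounds tested at five concentrations. The concentration for 50% growth inhibition is given as GI50.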 Calls of active or inactive are those of the source. Cut-off read from the data, not from the text of the source: active = GI50 up to about 1.1 µM and inactive = higher.

Assays:
Test in all cases: DTP human tumour cell line panel, 48 h
SK-MEL-5 = test system: SK-MEL-5
OVCAR-8 = test system: OVCAR-8
COLO 205 = test system: COLO 205
UACC-62 = test system: UACC-62
SK-MEL-28 = test system: SK-MEL-28
IGROV-1 = test system: IGROV-1
U-251 = test system: U-251
SK-OV-3 = test system: SK-OV-3
786-0 = test system: 786-0
M14 = test system: M14
RPMI-8226 = test system: RPMI-8226
SF-295 = test system: SF-295
A549 = test system: A549
CCRF-CEM = test system: CCRF-CEM
MOLT-4 = test system: MOLT-4
SNB-19 = test system: SNB-19
SR = test system: SR
HCC 2998 = test system: HCC 2998

Structure (SMILES) | GI50 (SK-MEL-5) | GI50 (OVCAR-8) | GI50 (COLO 205) | GI50 (UACC-62) | GI50 (SK-MEL-28) | GI50 (IGROV-1) | GI50 (U-251) | GI50 (SK-OV-3) | GI50 (786-0) | GI50 (M14) | GI50 (RPMI-8226) | GI50 (SF-295) | GI50 (A549) | GI50 (CCRF-CEM) | GI50 (MOLT-4) | GI50 (SNB-19) | GI50 (SR) | GI50 (HCC 2998)
CN(C)/C=N\c1cc[nH]c(=O)n1 | > 100 µM (inactive) | > 100 µM (inactive) | > 100 µM (inactive) | > 100 µM (inactive) | > 100 µM (inactive) | > 100 µM (inactive) | > 100 µM (inactive) | > 100 µM (inactive) | > 100 µM (inactive) | > 100 µM (inactive) | > 100 µM (inactive) | > 100 µM (inactive) | > 100 µM (inactive) | > 100 µM (inactive) | – | – | – | –
COC(=O)[C@]12CSCN1C(=O)C(C(C)=O)=NN2C(=O)[C@](OC)(c1ccccc1)C(F)(F)F | > 100 µM (inactive) | > 100 µM (inactive) | > 100 µM (inactive) | > 100 µM (inactive) | > 100 µM (inactive) | > 100 µM (inactive) | > 100 µM (inactive) | – | > 100 µM (inactive) | > 100 µM (inactive) | > 100 µM (inactive) | > 100 µM (inactive) | > 100 µM (inactive) | > 10 µM (inactive) | > 100 µM (inactive) | > 100 µM (inactive) | > 10 µM (inactive) | –
O=C(Nc1ccc(Cl)cc1)/C(Cc1cccc[n+]1[O-])=N\Nc1ccc([N+](=O)[O-])cc1[N+](=O)[O-] | > 100 µM (inactive) | > 100 µM (inactive) | > 100 µM (inactive) | > 100 µM (inactive) | > 100 µM (inactive) | > 100 µM (inactive) | > 100 µM (inactive) | > 100 µM (inactive) | > 100 µM (inactive) | > 100 µM (inactive) | > 100 µM (inactive) | > 100 µM (inactive) | > 100 µM (inactive) | > 100 µM (inactive) | > 100 µM (inactive) | > 100 µM (inactive) | – | > 100 µM (inactive)
Cc1ccc(/N=N/C2S/C(=C(\C#N)c3nc4ccccc4[nH]3)N(c3ccccc3)C2=O)cc1 (stereo unspecified) | > 100 µM (inactive) | 56.1 µM (inactive) | > 100 µM (inactive) | > 100 µM (inactive) | > 100 µM (inactive) | 29.6 µM (inactive) | 57.9 µM (inactive) | > 100 µM (inactive) | 27.3 µM (inactive) | 89.1 µM (inactive) | – | 42.6 µM (inactive) | 88.1 µM (inactive) | > 100 µM (inactive) | – | 99.1 µM (inactive) | – | –
CC(=O)OC(C)(C)C1CCC(C)(C(O)COc2ccc(CCNC(=O)c3ccccc3)cc2)O1 (stereo unspecified) | 11.6 µM (inactive) | 47.5 µM (inactive) | > 100 µM (inactive) | 30.8 µM (inactive) | 79.8 µM (inactive) | > 100 µM (inactive) | 53.3 µM (inactive) | > 100 µM (inactive) | > 100 µM (inactive) | 28.6 µM (inactive) | 20.7 µM (inactive) | 37.1 µM (inactive) | 51.1 µM (inactive) | 21.6 µM (inactive) | 14.8 µM (inactive) | > 100 µM (inactive) | 47.1 µM (inactive) | –
COC(=O)/C(=C/c1ccc(OC)cc1)C(C(=O)O)=C1CCCCC1 | > 100 µM (inactive) | > 100 µM (inactive) | > 100 µM (inactive) | > 100 µM (inactive) | – | > 100 µM (inactive) | > 100 µM (inactive) | > 100 µM (inactive) | > 100 µM (inactive) | > 100 µM (inactive) | > 100 µM (inactive) | > 100 µM (inactive) | > 100 µM (inactive) | > 100 µM (inactive) | > 100 µM (inactive) | > 100 µM (inactive) | > 100 µM (inactive) | –
C=CC1=C(C)/C(=C/C2=NC(=C\c3[nH]c(CC4NC(=O)C(C)/C4=C\C)c(C)c3CCC(=O)O)/C(CC(=O)O)=C2C)NC1=O (stereo unspecified) | – | > 100 µM (inactive) | > 100 µM (inactive) | > 100 µM (inactive) | > 100 µM (inactive) | > 100 µM (inactive) | > 100 µM (inactive) | > 100 µM (inactive) | > 100 µM (inactive) | > 100 µM (inactive) | – | > 100 µM (inactive) | > 100 µM (inactive) | > 100 µM (inactive) | > 100 µM (inactive) | > 100 µM (inactive) | > 100 µM (inactive) | > 100 µM (inactive)
Cc1cc2c(c(C(N)=O)c1C)-c1cccc(Cl)c1C2=O | > 100 µM (inactive) | > 100 µM (inactive) | > 100 µM (inactive) | > 100 µM (inactive) | > 100 µM (inactive) | > 100 µM (inactive) | > 100 µM (inactive) | > 100 µM (inactive) | > 100 µM (inactive) | > 100 µM (inactive) | > 100 µM (inactive) | > 100 µM (inactive) | > 100 µM (inactive) | > 100 µM (inactive) | 57.9 µM (inactive) | 64.1 µM (inactive) | – | > 100 µM (inactive)
Brc1ccc(N2C[N+](c3ccc(Br)cc3)=NC(c3ccccc3)=N2)cc1.[O-][Cl+3]([O-])([O-])[O-] | 76.4 µM (inactive) | > 100 µM (inactive) | 63.4 µM (inactive) | > 100 µM (inactive) | > 100 µM (inactive) | > 100 µM (inactive) | > 100 µM (inactive) | > 100 µM (inactive) | > 100 µM (inactive) | 58.3 µM (inactive) | 49.9 µM (inactive) | 29.4 µM (inactive) | 75.9 µM (inactive) | – | 43 µM (inactive) | > 100 µM (inactive) | – | > 100 µM (inactive)
O=c1ccn([C@H]2CSC[C@@H](CO)C2)c(=O)[nH]1 | > 100 µM (inactive) | > 100 µM (inactive) | – | > 100 µM (inactive) | > 100 µM (inactive) | > 100 µM (inactive) | > 100 µM (inactive) | > 100 µM (inactive) | > 100 µM (inactive) | > 100 µM (inactive) | > 100 µM (inactive) | > 10 µM (inactive) | > 100 µM (inactive) | > 100 µM (inactive) | > 100 µM (inactive) | > 100 µM (inactive) | – | > 100 µM (inactive)
CCOC(=O)C(=O)Nc1c(N(CC)CC)n2ccccc2nc1=O | > 100 µM (inactive) | > 100 µM (inactive) | > 100 µM (inactive) | > 100 µM (inactive) | – | > 100 µM (inactive) | > 100 µM (inactive) | > 100 µM (inactive) | > 100 µM (inactive) | > 100 µM (inactive) | > 100 µM (inactive) | – | > 100 µM (inactive) | > 100 µM (inactive) | > 100 µM (inactive) | > 100 µM (inactive) | > 100 µM (inactive) | –
COc1ccc(OCC(=O)O)c2c1CCC(C)C2=O (stereo unspecified) | > 100 µM (inactive) | > 100 µM (inactive) | > 100 µM (inactive) | > 100 µM (inactive) | > 100 µM (inactive) | > 100 µM (inactive) | > 100 µM (inactive) | > 100 µM (inactive) | > 100 µM (inactive) | > 100 µM (inactive) | > 100 µM (inactive) | > 100 µM (inactive) | > 100 µM (inactive) | > 100 µM (inactive) | > 100 µM (inactive) | > 100 µM (inactive) | – | > 100 µM (inactive)
CC(=O)O[C@H]1C(=O)[C@@]2(C)C(C(OC(=O)c3ccccc3)[C@]3(O)CC(OC(=O)C(O)C(NC(=O)c4ccc(C)cc4)c4ccccc4)C(C)=C1C3(C)C)[C@]1(OC(C)=O)CO[C@@H]1C[C@@H]2O (stereo partly specified) | 0.00402 µM (active) | 0.00426 µM (active) | < 0.0025 µM (active) | 0.0199 µM (active) | – | < 0.0025 µM (active) | 0.00315 µM (active) | < 0.0025 µM (active) | 0.0074 µM (active) | < 0.0025 µM (active) | < 0.0025 µM (active) | 0.0228 µM (active) | 0.00504 µM (active) | 0.00365 µM (active) | < 0.0025 µM (active) | 0.00771 µM (active) | – | –
CC(=O)OCC1OC(Sc2ccccn2)C=CC1OC(C)=O (stereo unspecified) | > 100 µM (inactive) | > 100 µM (inactive) | > 100 µM (inactive) | > 100 µM (inactive) | > 100 µM (inactive) | > 100 µM (inactive) | > 100 µM (inactive) | > 100 µM (inactive) | > 100 µM (inactive) | > 100 µM (inactive) | – | > 100 µM (inactive) | > 100 µM (inactive) | > 100 µM (inactive) | > 100 µM (inactive) | > 100 µM (inactive) | > 100 µM (inactive) | > 100 µM (inactive)
CN1C(c2ccccc2)CC(O)CC1c1ccccc1 (stereo unspecified) | > 100 µM (inactive) | > 100 µM (inactive) | > 100 µM (inactive) | > 100 µM (inactive) | > 100 µM (inactive) | > 100 µM (inactive) | > 100 µM (inactive) | > 100 µM (inactive) | > 100 µM (inactive) | > 100 µM (inactive) | > 100 µM (inactive) | > 100 µM (inactive) | > 100 µM (inactive) | > 100 µM (inactive) | > 100 µM (inactive) | > 100 µM (inactive) | > 100 µM (inactive) | –
CC(=O)NNc1nc(C)c(C(=O)/C=C/c2ccc(Cl)c(Cl)c2)s1 | > 100 µM (inactive) | > 100 µM (inactive) | > 100 µM (inactive) | > 100 µM (inactive) | > 100 µM (inactive) | > 100 µM (inactive) | > 100 µM (inactive) | > 100 µM (inactive) | > 100 µM (inactive) | – | > 100 µM (inactive) | > 100 µM (inactive) | > 100 µM (inactive) | 70.5 µM (inactive) | > 100 µM (inactive) | > 100 µM (inactive) | – | > 100 µM (inactive)
